Data on 10 compounds can be found in US9062124B2, “GIP-based mixed agonists for treatment of metabolic disorders and obesity” (priority 2008, dated 2015).

Test [1] addresses T1, glucagon receptor (Homo sapiens, UniProt P47871).
T1 construct: expressed in transfected cells; host or cells: HEK293
The experiment in a line: cAMP synthesis functional assay (firefly luciferase reporter in HEK293 cells), glucagon receptor. The test is classed as cell-based. The following applies: for EC50: Glucagon Receptor EC50, nM; for EC50 / Glucagon Receptor relative activity: Table 1; for Glucagon Receptor relative activity: relative to the native hormone of the indicated receptor; for % activity*: glucagon receptor. (In a reporter assay the amount or activity of a reporter protein is the signal.)

Test [2] deals with T2, GLP-1 receptor (Homo sapiens, UniProt P43220).
T2 construct: expressed in transfected cells; host or cells: HEK293
Kind of test: cAMP synthesis functional assay (firefly luciferase reporter in HEK293 cells), GLP-1 receptor. The format is cell-based. The note with it: Table 1; for GLP-1 Receptor relative activity: relative to the native hormone of the indicated receptor; for EC50: GLP-1 Receptor EC50, nM.

Where a SMILES comes first, the peptide text is derived from it. Bridges are numbered along the chain shown (N, C = ends). Where no end group is shown, it is not given here. [ ]: non-standard residue; d: D form. PhLac = O=C(O)[C@@H](O)Cc1ccccc1; Dab = NCC[C@H](N)C(=O)O; Aib = CC(C)(N)C(=O)O

T1 sequence (P47871 26-477): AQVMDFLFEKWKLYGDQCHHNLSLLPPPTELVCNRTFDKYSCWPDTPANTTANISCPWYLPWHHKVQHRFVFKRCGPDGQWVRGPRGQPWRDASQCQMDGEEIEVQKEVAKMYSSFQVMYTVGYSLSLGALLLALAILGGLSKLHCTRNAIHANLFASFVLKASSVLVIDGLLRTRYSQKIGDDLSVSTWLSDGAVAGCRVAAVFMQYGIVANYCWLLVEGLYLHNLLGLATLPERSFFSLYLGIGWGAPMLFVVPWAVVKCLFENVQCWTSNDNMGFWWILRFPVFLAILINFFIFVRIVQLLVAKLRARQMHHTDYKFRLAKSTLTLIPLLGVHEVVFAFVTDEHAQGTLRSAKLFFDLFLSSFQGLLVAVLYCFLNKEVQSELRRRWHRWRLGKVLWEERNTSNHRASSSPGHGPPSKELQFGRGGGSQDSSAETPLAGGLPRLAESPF
T2 sequence (P43220 24-463, species assumed): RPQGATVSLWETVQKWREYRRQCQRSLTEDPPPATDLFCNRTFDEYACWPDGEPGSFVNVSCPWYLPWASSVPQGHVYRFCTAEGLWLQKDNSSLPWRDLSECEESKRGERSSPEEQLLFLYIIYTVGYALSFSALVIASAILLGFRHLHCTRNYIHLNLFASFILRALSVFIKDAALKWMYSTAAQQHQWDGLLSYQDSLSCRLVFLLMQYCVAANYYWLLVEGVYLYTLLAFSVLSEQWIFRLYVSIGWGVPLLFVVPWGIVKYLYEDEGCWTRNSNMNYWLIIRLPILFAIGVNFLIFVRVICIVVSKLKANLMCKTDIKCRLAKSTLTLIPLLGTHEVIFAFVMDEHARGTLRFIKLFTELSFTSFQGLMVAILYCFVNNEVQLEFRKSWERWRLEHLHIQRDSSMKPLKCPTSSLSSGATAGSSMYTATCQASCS

For the compound `CC[C@H](C)[C@H](NC(=O)[C@H](Cc1ccccc1)NC(=O)[C@H](CCC(=O)O)NC(=O)[C@H](CCCCN)NC(=O)[C@H](CCC(N)=O)NC(=O)[C@H](Cc1c[nH]cn1)NC(=O)[C@@H](NC(=O)[C@@H]1CCC(=O)NCCCC[C@H](NC(=O)[C@H](CO)NC(=O)[C@H](Cc2ccc(O)cc2)NC(=O)[C@H](CC(=O)O)NC(=O)[C@H](CO)NC(=O)[C@@H](NC(=O)[C@H](Cc2ccccc2)NC(=O)[C@@H](NC(=O)CNC(=O)[C@H](CCC(N)=O)NC(=O)[C@H](CO)NC(=O)[C@@H](N)Cc2c[nH]cn2)[C@@H](C)O)[C@@H](C)O)C(=O)N[C@@H](Cc2ccc(O)cc2)C(=O)N[C@@H](CC(C)C)C(=O)N[C@@H](CC(=O)O)C(=O)N1)[C@@H](C)CC)C(=O)N[C@@H](C)C(=O)N[C@@H](Cc1c[nH]c2ccccc12)C(=O)N[C@@H](CC(C)C)C(=O)N[C@@H](CCSC)C(=O)N[C@@H](CC(N)=O)C(=O)N[C@H](C(N)=O)[C@@H](C)O` [mt-63], in test [1], the EC50 (commonly the concentration at which the effect is half-maximal) is 3.15 nM and the “Glucagon Receptor relative activity” value is reported as 6.03%. The “GLP-1 Receptor relative activity” value in test [2] is 12.90%.
`CC[C@H](C)[C@H](NC(=O)[C@H](Cc1ccccc1)NC(=O)[C@H](CCC(=O)O)NC(=O)[C@@H]1CCCCNC(=O)CC[C@H](NC(=O)[C@H](CC(=O)O)NC(=O)[C@H](CC(C)C)NC(=O)[C@H](Cc2ccc(O)cc2)NC(=O)[C@@H](NC(=O)[C@H](CO)NC(=O)[C@H](Cc2ccc(O)cc2)NC(=O)[C@H](CC(=O)O)NC(=O)[C@H](CO)NC(=O)[C@@H](NC(=O)[C@H](Cc2ccccc2)NC(=O)[C@@H](NC(=O)CNC(=O)[C@H](CCC(N)=O)NC(=O)[C@H](CO)NC(=O)[C@@H](N)Cc2c[nH]cn2)[C@@H](C)O)[C@@H](C)O)[C@@H](C)CC)C(=O)N[C@@H]([C@@H](C)CC)C(=O)N[C@@H](Cc2c[nH]cn2)C(=O)N[C@@H](CCC(N)=O)C(=O)N1)C(=O)N[C@@H](CS)C(=O)N[C@@H](Cc1c[nH]c2ccccc12)C(=O)N[C@@H](CC(C)C)C(=O)N[C@@H](CC(C)C)C(=O)N[C@@H](C)C(=O)N[C@@H](CCC(N)=O)C(N)=O` [mt-84] (H-HSQGTFTSDYSIYLDEIHQKEFICWLLAQ-NH2; lactam 16-20; N-terminus assumed): in test [1], the 50% effective concentration (EC50) was found to be 0.45 nM and the “Glucagon Receptor relative activity” value was determined as 13.33%. For the same compound, in test [2], the EC50 stood at 0.16 nM and the “GLP-1 Receptor relative activity” value is reported as 50.00%.
`CC[C@H](C)[C@H](NC(=O)[C@H](CO)NC(=O)[C@H](Cc1ccc(O)cc1)NC(=O)[C@H](CC(=O)O)NC(=O)[C@H](CO)NC(=O)[C@@H](NC(=O)[C@H](Cc1ccccc1)NC(=O)[C@@H](NC(=O)CNC(=O)[C@H](CCC(N)=O)NC(=O)C(C)(C)N)[C@@H](C)O)[C@@H](C)O)C(=O)N[C@@H](Cc1ccc(O)cc1)C(=O)N[C@@H](CC(C)C)C(=O)N[C@@H](CC(=O)O)C(=O)N[C@@H](CCC(=O)O)C(=O)N[C@@H](CCC(=O)O)C(=O)N[C@@H](C)C(=O)N[C@H](C(=O)N[C@@H](CCCNC(=N)N)C(=O)N[C@@H](CC(C)C)C(=O)N[C@@H](Cc1ccccc1)C(=O)N[C@H](C(=O)N[C@@H](CC(N)=O)C(=O)N[C@@H](Cc1c[nH]c2ccccc12)C(=O)N[C@@H](CC(C)C)C(=O)N[C@@H](CC(C)C)C(=O)N[C@@H](C)C(=O)NCC(=O)NCC(=O)N1CCC[C@H]1C(=O)N[C@@H](CO)C(=O)N[C@@H](CO)C(=O)NCC(=O)N[C@@H](C)C(=O)N1CCC[C@H]1C(=O)N1CCC[C@H]1C(=O)N1CCC[C@H]1C(=O)N[C@@H](CO)C(N)=O)C(C)C)C(C)C` [mt-194] (H-[Aib]QGTFTSDYSIYLDEEAVRLFVNWLLAGGPSSGAPPPS-NH2; N-terminus assumed): in test [2], the “GLP-1 Receptor relative activity” value was 0.63%.
On to “HSQGTFTSDYSKYLDEIHQKEFIAWLLAQ-NH2 [mt-66]”, for which, in test [1], the “Glucagon Receptor relative activity” value was found to be 13.00%. For the same compound, the “GLP-1 Receptor relative activity” value in test [2] came out at 38.46%.
Regarding `CNC(=O)CC[C@H](NC(=O)[C@H](CO)NC(=O)[C@@H](N)Cc1c[nH]cn1)C(=O)NCC(=O)N[C@H](C(=O)N[C@@H](Cc1ccccc1)C(=O)N[C@H](C(=O)N[C@@H](CO)C(=O)N[C@@H](CC(=O)O)C(=O)N[C@@H](Cc1ccc(O)cc1)C(=O)N[C@@H](CO)C(=O)N[C@@H](CCCCN)C(=O)N[C@@H](Cc1ccc(O)cc1)C(=O)N[C@@H](CC(C)C)C(=O)N[C@@H](CC(=O)O)C(=O)NC(C)(C)C(=O)N[C@@H](CCCNC(=N)N)C(=O)N[C@@H](CCCNC(=N)N)C(=O)N[C@@H](C)C(=O)N[C@@H](C)C(=O)N[C@@H](CC(=O)O)C(=O)N[C@@H](Cc1ccccc1)C(=O)N[C@H](C(=O)N[C@@H](C)C(=O)N[C@@H](Cc1c[nH]c2ccccc12)C(=O)N[C@@H](CC(C)C)C(=O)N[C@@H](CCSC)C(=O)N[C@@H](CC(=O)O)C(=O)N[C@@H](CCC(=O)O)C(=O)O)C(C)C)[C@@H](C)O)[C@@H](C)O` [SEQ ID NO: 251], the “% activity*” value in test [1] (Table 6) is given as 55%.
`CC[C@H](C)[C@H](NC(=O)[C@H](Cc1ccccc1)NC(=O)[C@@H]1CCC(=O)NCCCC[C@@H]2NC(=O)[C@@H](NC(=O)[C@H](CC(=O)O)NC(=O)[C@H](CC(C)C)NC(=O)[C@H](Cc3ccc(O)cc3)NC(=O)[C@@H](NC(=O)[C@H](CO)NC(=O)[C@H](Cc3ccc(O)cc3)NC(=O)[C@H](CC(=O)O)NC(=O)[C@H](CO)NC(=O)[C@@H](NC(=O)[C@H](Cc3ccccc3)NC(=O)[C@@H](NC(=O)CNC(=O)[C@H](CCC(N)=O)NC(=O)[C@H](CO)NC(=O)[C@@H](N)Cc3c[nH]cn3)[C@@H](C)O)[C@@H](C)O)[C@@H](C)CC)CCC(=O)NCCCC[C@H](NC(=O)[C@H](CCC(N)=O)NC(=O)[C@H](Cc3c[nH]cn3)NC2=O)C(=O)N1)C(=O)N[C@@H](C)C(=O)N[C@@H](Cc1c[nH]c2ccccc12)C(=O)N[C@@H](CC(C)C)C(=O)N[C@@H](CC(C)C)C(=O)N[C@@H](C)C(=O)N[C@@H](CCC(N)=O)C(N)=O` [mt-93]: the “Glucagon Receptor relative activity” value in test [1] is given as 14.33%. Also, in test [2], the EC50 came out at 0.04 nM and the “GLP-1 Receptor relative activity” value came to 150.00%.
`CC[C@H](C)[C@H](NC(=O)[C@H](CO)NC(=O)[C@H](Cc1ccc(O)cc1)NC(=O)[C@H](CC(=O)O)NC(=O)[C@H](CO)NC(=O)[C@@H](NC(=O)[C@@H](O)Cc1ccccc1)[C@@H](C)CC)C(=O)N[C@@H](C)C(=O)N[C@@H](CCSC)C(=O)N[C@@H](CC(=O)O)C(=O)N[C@H]1CCC(=O)NCCCC[C@@H](C(=O)N[C@@H](CC(=O)O)C(=O)N[C@@H](Cc2ccccc2)C(=O)N[C@H](C(=O)N[C@@H](CC(N)=O)C(=O)N[C@@H](Cc2c[nH]c3ccccc23)C(=O)N[C@@H](CC(C)C)C(=O)N[C@@H](CC(C)C)C(=O)N[C@@H](C)C(=O)N[C@@H](CCC(N)=O)C(N)=O)C(C)C)NC(=O)[C@H](CCC(N)=O)NC(=O)[C@H](Cc2c[nH]cn2)NC(=O)[C@H]([C@@H](C)CC)NC1=O` [mt-113] (H-[PhLac]ISDYSIAMDEIHQKDFVNWLLAQ-NH2; lactam 11-15): the “Glucagon Receptor relative activity” value in test [1] was determined as 0.07%. Also, the “GLP-1 Receptor relative activity” value in test [2] turned out to be 0.04%.
As to “FTSDYSIYLDEQAAKEFVNWLLAGGPSSGAPPPS-NH2 [mt-192]”, the “GLP-1 Receptor relative activity” value in test [2] was 0.06%.
For the compound `CC(=O)NCC[C@H](NC(=O)[C@H](CO)NC(=O)[C@@H](N)Cc1c[nH]cn1)C(=O)NCC(=O)N[C@H](C(=O)N[C@@H](Cc1ccccc1)C(=O)N[C@H](C(=O)N[C@@H](CO)C(=O)N[C@@H](CC(=O)O)C(=O)N[C@@H](Cc1ccc(O)cc1)C(=O)N[C@@H](CO)C(=O)N[C@@H](CCCCN)C(=O)N[C@@H](Cc1ccc(O)cc1)C(=O)N[C@@H](CC(C)C)C(=O)N[C@@H](CC(=O)O)C(=O)NC(C)(C)C(=O)N[C@@H](CCCNC(=N)N)C(=O)N[C@@H](CCCNC(=N)N)C(=O)N[C@@H](C)C(=O)N[C@H](C(=O)N[C@@H](CC(=O)O)C(=O)N[C@@H](Cc1ccccc1)C(=O)N[C@H](C(=O)N[C@H](C(=O)N[C@@H](Cc1c[nH]c2ccccc12)C(=O)N[C@@H](CC(C)C)C(=O)N[C@@H](CC(C)C)C(=O)N[C@@H](CC(=O)O)C(=O)N[C@@H](CCC(=O)O)C(=O)O)[C@@H](C)O)C(C)C)[C@@H](C)O)[C@@H](C)O)[C@@H](C)O` [SEQ ID NO: 256] (H-HS[Dab](Ac)GTFTSDYSKYLD[Aib]RRATDFVTWLLDE-OH; N-terminus and C-terminus assumed), the “% activity*” value in test [1] (Table 7) is reported as 46%.
Still for that read-out and setting: then `CC(=O)NCC[C@H](NC(=O)[C@H](CO)NC(=O)[C@@H](N)Cc1c[nH]cn1)C(=O)NCC(=O)N[C@H](C(=O)N[C@@H](Cc1ccccc1)C(=O)N[C@H](C(=O)N[C@@H](CO)C(=O)N[C@@H](CC(=O)O)C(=O)N[C@@H](Cc1ccc(O)cc1)C(=O)N[C@@H](CO)C(=O)N[C@@H](CCCCN)C(=O)N[C@@H](Cc1ccc(O)cc1)C(=O)N[C@@H](CC(C)C)C(=O)N[C@@H](CC(=O)O)C(=O)NC(C)(C)C(=O)N[C@@H](CCCNC(=N)N)C(=O)N[C@@H](CCCNC(=N)N)C(=O)N[C@@H](C)C(=O)N[C@@H](C)C(=O)N[C@@H](CC(=O)O)C(=O)N[C@@H](Cc1ccccc1)C(=O)N[C@H](C(=O)N[C@@H](C)C(=O)N[C@@H](Cc1c[nH]c2ccccc12)C(=O)N[C@@H](CC(C)C)C(=O)N[C@@H](CC(C)C)C(=O)N[C@@H](CC(=O)O)C(=O)N[C@H](C(=O)NCC(=O)N1CCC[C@H]1C(=O)N[C@@H](CO)C(=O)N[C@@H](CO)C(=O)NCC(=O)N[C@@H](C)C(=O)N1CCC[C@H]1C(=O)N1CCC[C@H]1C(=O)N1CCC[C@H]1C(=O)N[C@@H](CO)C(N)=O)[C@@H](C)O)C(C)C)[C@@H](C)O)[C@@H](C)O` [SEQ ID NO: 254] (H-HS[Dab](Ac)GTFTSDYSKYLD[Aib]RRAADFVAWLLDTGPSSGAPPPS-NH2; N-terminus assumed), with 113%.
